Source: ChEMBL document CHEMBL3301458, “MMV Malaria Box hERG screening”
The source made the active and inactive calls. The rule behind the calls is not given here.

Legend:
hERG (Kv11.1, KCNH2) [1] = target: T1, hERG (Kv11.1, KCNH2) (Homo sapiens, UniProt Q12809); experiment: in vitro
Description: MMV: Malaria Box compounds were tested for inhibition of the human ether a go-go related gene (hERG), Kv11.1 channel, using IonWorks 384-well patch clamp electrophysiology at 1.1uM (3 independent assay plates up to 12 cells per concentration).

hERG (Kv11.1, KCNH2) [2] = target: T1, hERG (Kv11.1, KCNH2); experiment: in vitro; remark: listed apart in the source
Description: MMV: Malaria Box compounds were tested for inhibition of the human ether a go-go related gene (hERG), Kv11.1 channel, using IonWorks 384-well patch clamp electrophysiology at 11.1uM (3 independent assay plates up to 12 cells per concentration).

T1 sequence (Q12809 whole entry): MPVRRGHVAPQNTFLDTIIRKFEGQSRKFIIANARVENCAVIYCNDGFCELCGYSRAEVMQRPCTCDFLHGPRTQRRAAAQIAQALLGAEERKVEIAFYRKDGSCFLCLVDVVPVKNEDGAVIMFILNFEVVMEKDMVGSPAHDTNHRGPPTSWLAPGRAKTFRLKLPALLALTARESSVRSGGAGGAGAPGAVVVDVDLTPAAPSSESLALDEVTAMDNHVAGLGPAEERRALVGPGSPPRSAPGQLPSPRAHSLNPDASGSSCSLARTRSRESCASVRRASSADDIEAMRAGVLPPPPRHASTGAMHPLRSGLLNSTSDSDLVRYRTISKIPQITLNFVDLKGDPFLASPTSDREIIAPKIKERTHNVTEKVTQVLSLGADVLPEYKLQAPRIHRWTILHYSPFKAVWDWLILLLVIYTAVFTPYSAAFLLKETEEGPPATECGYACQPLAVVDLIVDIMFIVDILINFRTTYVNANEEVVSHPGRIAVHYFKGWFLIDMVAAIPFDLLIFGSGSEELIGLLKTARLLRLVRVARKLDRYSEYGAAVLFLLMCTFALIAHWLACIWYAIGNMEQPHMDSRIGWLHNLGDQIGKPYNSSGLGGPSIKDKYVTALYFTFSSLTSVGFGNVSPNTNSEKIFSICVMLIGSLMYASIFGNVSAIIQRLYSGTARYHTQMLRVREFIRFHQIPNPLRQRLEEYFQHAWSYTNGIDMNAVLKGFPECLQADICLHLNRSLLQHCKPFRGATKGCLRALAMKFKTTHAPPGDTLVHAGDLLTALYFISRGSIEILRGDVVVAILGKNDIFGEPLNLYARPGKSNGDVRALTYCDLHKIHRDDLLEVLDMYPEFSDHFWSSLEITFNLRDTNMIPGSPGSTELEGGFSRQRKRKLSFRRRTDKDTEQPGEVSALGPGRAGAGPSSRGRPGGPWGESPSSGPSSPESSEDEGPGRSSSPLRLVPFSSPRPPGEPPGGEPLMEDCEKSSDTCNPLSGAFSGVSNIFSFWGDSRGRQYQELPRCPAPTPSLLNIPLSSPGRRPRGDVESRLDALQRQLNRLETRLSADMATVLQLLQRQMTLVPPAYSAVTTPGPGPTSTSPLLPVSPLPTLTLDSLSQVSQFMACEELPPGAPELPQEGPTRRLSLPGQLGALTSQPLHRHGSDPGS

SMILES	inhibition at 1.1 µM (hERG (Kv11.1, KCNH2) [1]) [%]	inhibition at 11.1 µM (hERG (Kv11.1, KCNH2) [2])
Fc1ccc2[nH]c3c(NCCCN4CCOCC4)ncnc3c2c1	24	77% (active)
COc1ccc(Nc2cc(C)nc(NCc3ccccc3)n2)cc1	> 5	67% (active)
CCc1ccc(Nc2cc(C)c3ccc(O)cc3n2)cc1	15	78% (active)
Oc1ccccc1CN1CCC2(CCCN(Cc3ccccc3F)C2)C1 (centres undefined)	1	59% (active)
CCOc1ccc(N2C(N)=NC(N)=NC2(C)C)cc1	12	6% (inactive)
CCN1CCN(Cc2ccc(NC(=O)c3cc4ccc5cccnc5c4[nH]3)cc2)CC1	41	106% (active)
O=C(Nc1ccc(N2CCCCC2)c(Cl)c1)c1ccc(Br)o1	-3	41%
O=C(Nc1cccc(C2=NCCN2)c1)Nc1cccc(C2=NCCN2)c1 [IMIDOCARB]	59	110%
CCOC(=O)C1=C(c2ccccc2)N=c2sc(=Cc3cc(C)n(-c4ccc(F)cc4)c3C)c(=O)n2C1c1cccc(OC)c1OC (centres undefined)	3	11% (inactive)
CC(C)OCc1cc(CN2CCN(c3cccc(Cl)c3)CC2)c(O)c2ncccc12	65	100%
CCCc1cc(O)c2c3c(c(=O)oc2c1)CN(C)CC3	46	94% (active)
COc1ccc(CNC2CCN(c3ccc(NC(=O)c4cccc(Cl)c4)cc3)CC2)cc1OC	84	102%
COc1ccc(CCN2C(=O)c3[nH]nc(-c4cc(Cl)c(C)cc4O)c3C2c2ccccc2F)cc1 (centres undefined)	51	5%
COc1ccc(-c2nonc2NC(=O)c2cccc(C)c2)cc1OC	5	-3% (inactive)
CC(C)(C)c1ccc(O)c(CNC2CCCCC2)c1	10	35%
Cc1cccc(N2C(=O)C3C(C2=O)C2(c4ccccc4)C(=O)C3(c3ccccc3)C(c3ccc4c(c3)OCO4)=C2c2ccc3c(c2)OCO3)c1 (centres undefined)	-14	2% (inactive)
O=C(Nc1ccc(F)c(Cl)c1)Nc1ccc(Cl)c(Cl)c1	-11	-3% (inactive)
COc1cc2cc(C(=O)Nc3ccccc3)c(N)nc2cc1OC	10	69% (active)
COc1ccc(C(O)(CCC(C)C)C(CN2CCOCC2)c2ccc(Cl)cc2)cc1 (centres undefined)	4	109% (active)
CC(=O)NCCc1nc2ccccc2n1Cc1ccc(C(C)C)cc1	6	26%
COc1ccc(C(=O)NC(c2ccc(Cl)cc2Cl)c2cc(Cl)c3cccnc3c2O)cc1 (centres undefined)	-3	-12% (inactive)

SMILES	inhibition at 1.1 µM (hERG (Kv11.1, KCNH2) [1]) [%]	inhibition at 11.1 µM (hERG (Kv11.1, KCNH2) [2])
COc1ccc(C2NCCc3c2[nH]c2ccccc32)cc1CN1CCN(c2ccc(F)cc2)CC1 (centres undefined)	18	113% (active)
COc1cccc(-c2nn(C)c3sc(C(=O)NCCN4CCN(c5ccccc5F)CC4)cc23)c1	21	91% (active)
Cc1cc(NC(=O)C2c3ccccc3C(=O)N(CC(C)C)C2c2cccs2)no1 (centres undefined)	4	11% (inactive)
CCOc1ccc(-c2nc(NC(=O)c3cccc(S(C)(=O)=O)c3)sc2C)cc1	3	29%
Cc1[nH]c(-c2ccc(F)cc2)cc1C(=O)NC1CCN(Cc2ccccc2)CC1	55	96%
CCOc1cc2c(cc1OCC)C(c1cc(C)c(O)c(C)c1)NCC2 (centres undefined)	13	36%
COc1cccc(Nc2nc(N)c3ccccc3n2)c1	10	9% (inactive)
CCOc1ccccc1NC(=O)CN1CCN(C(=O)c2ccco2)CC1	13	35%
CCC(=O)Nc1nnc(Cc2ccc(OC)c(OC)c2)s1	-1	-7% (inactive)
CCOc1c(Br)cc(C2C(C(=O)OC)=CN(C)C=C2C(=O)OC)cc1OC	3	21% (inactive)
CCN(CC)CCNc1ccnc2cc3ccccc3cc12	9	6% (inactive)
COc1ccc(-c2cc3c(SCC(=O)Nc4cc(C(F)(F)F)ccc4Cl)nccn3n2)cc1	6	17% (inactive)
CCOC(=O)C1=CN(C)C=C(C(=O)OCC)C1c1cc(Br)c(OCC)c(OC)c1	16	54% (active)
CCN(CC)CCCNc1nc(-c2ccc(Cl)cc2)nc2ccccc12	8	94% (active)
Cc1ccc(Nc2nc(NCCO)c3ccccc3n2)cc1C	> 12	81% (active)
CCOC(=O)c1cnc2ccc(OC)cc2c1NCc1ccccc1	-2	4% (inactive)
CNCCCNc1ccnc2cc(Cl)ccc12	-1	21% (inactive)
O=C(NCC1Cc2cccc(-c3ccncc3)c2O1)c1csc2c1CCCC2 (centres undefined)	13	61% (active)
N=c1c2ccccc2nnn1-c1cccc(C(F)(F)F)c1	-3	11% (inactive)
CCCCCn1c(=N)n(CC(O)COc2cccc(C)c2)c2ccccc21 (centres undefined)	59	101%
Cc1cc(C)c2nc(N3CCC(C(=O)NCCCN4CCC(N5CCCCC5)CC4)CC3)sc2c1	18	60% (active)

SMILES	inhibition at 1.1 µM (hERG (Kv11.1, KCNH2) [1]) [%]	inhibition at 11.1 µM (hERG (Kv11.1, KCNH2) [2])
CCN1CCN(c2c(C(=O)c3ccccc3)cnc3cc(OC)c(OC)cc23)CC1	36	40%
CCOc1c(Cl)cc(CNCC(O)c2ccccc2)cc1OC (centres undefined)	16	66% (active)
CCCCNCC(O)(c1ccc(Cl)cc1)c1ccc(Cl)cc1	30	95% (active)
Cn1c(=O)c2cc(C(=O)NCCCN3CCCCCC3)sc2c2ccccc21	-5	6% (inactive)
Oc1ccc(-c2nc(-c3ccc4oc5ccc(-c6[nH]c(-c7ccc(O)cc7)nc6-c6ccccc6)cc5c4c3)c(-c3ccccc3)[nH]2)cc1	12	54% (active)
COc1ccc(CCN2CCC(CN(C)Cc3cnn(-c4ccccc4)c3)CC2)cc1	41	99% (active)
Brc1ccc(Nc2nc3ccccc3nc2Nc2ccc(Br)cc2)cc1	2	2% (inactive)
CCN(CC)CCNc1ncnc2c1[nH]c1ccc(Cl)cc12	99	97%
Oc1ccc2ccccc2c1CNc1nc2ccccc2[nH]1	-5	21% (inactive)
Cc1cc(=O)oc2c1ccc1oc(C(=O)c3ccccc3)c(C)c12	-6	6% (inactive)
O=C(Nc1ccc(-c2nc3cc4ccccc4cc3[nH]2)cc1)c1cccc(Br)c1	-1	-2% (inactive)
COc1cccc(C(=O)NC(c2ccc(C)cc2)c2cc(Cl)c3cccnc3c2O)c1 (centres undefined)	4	-6% (inactive)
CN(C)c1ccc(N=Cc2ccc(N3CCOCC3)cc2)cc1	-6	-3% (inactive)
CCN1CCCC1CNc1[nH]cnc2c3cc(Cl)ccc3nc1-2 (centres undefined)	6	29%
OC(CNC1CCCCC1)Cn1c2ccccc2c2ccccc21 (centres undefined)	14	23% (inactive)
Cc1cc(NC(=O)c2ccc(-c3ccccc3)cc2)no1	-2	12% (inactive)
CC(Oc1ccc(NC(=O)c2cccs2)cc1)C(=O)c1ccc(Cl)cc1 (centres undefined)	-4	55% (active)
COc1cccc(NC(=O)[C@H](C(C)C)n2c(=O)[nH]c3ccccc3c2=O)c1	2	17% (inactive)
CCOc1ccc2c(c1)CN(Cc1ccc(Cl)cc1)CO2	33	99% (active)
CCOC(=O)c1ccc2[nH]c(-c3ccccc3)cc(=O)c2c1	-1	7% (inactive)
